Like-named read-outs stand apart in the source and are kept apart here.
Columns and labels:
[1] = system: PI3-K (phosphorylation of AKT at serine 473) in BT20 cells; test: PI3-Kα cellular assay (phospho-AKT Ser473 ELISA in BT20 cells); conditions: Homo sapiens, BT-20, 1 h;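 note: lysates read by ELISA with TMB colour at 450 nm, cells given 0.5% DMSO vehicle serve as positive control and cell-free wells as negative control, duplicate wells per concentration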
PI3-Kα = PI3-Kα (Mus musculus (Mouse), UniProt P42337); test: PI3-Kα biochemical assay (in vitro kinase assay, fluorescence polarization); conditions: Ki calculated from IC50, [ATP]=30 uM, Km=25 uM;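 note: Insect-cell-expressed mouse p110/p85 complex converting PI(4,5)P2, product PI(3,4,5)P3 detected by displacing TAMRA-tagged PI(3,4,5)P3 from Grip1 PH domain, lower polarization means more product, room temperature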
Sequence of PI3-Kα (P42337 whole entry, the tested form may be a part): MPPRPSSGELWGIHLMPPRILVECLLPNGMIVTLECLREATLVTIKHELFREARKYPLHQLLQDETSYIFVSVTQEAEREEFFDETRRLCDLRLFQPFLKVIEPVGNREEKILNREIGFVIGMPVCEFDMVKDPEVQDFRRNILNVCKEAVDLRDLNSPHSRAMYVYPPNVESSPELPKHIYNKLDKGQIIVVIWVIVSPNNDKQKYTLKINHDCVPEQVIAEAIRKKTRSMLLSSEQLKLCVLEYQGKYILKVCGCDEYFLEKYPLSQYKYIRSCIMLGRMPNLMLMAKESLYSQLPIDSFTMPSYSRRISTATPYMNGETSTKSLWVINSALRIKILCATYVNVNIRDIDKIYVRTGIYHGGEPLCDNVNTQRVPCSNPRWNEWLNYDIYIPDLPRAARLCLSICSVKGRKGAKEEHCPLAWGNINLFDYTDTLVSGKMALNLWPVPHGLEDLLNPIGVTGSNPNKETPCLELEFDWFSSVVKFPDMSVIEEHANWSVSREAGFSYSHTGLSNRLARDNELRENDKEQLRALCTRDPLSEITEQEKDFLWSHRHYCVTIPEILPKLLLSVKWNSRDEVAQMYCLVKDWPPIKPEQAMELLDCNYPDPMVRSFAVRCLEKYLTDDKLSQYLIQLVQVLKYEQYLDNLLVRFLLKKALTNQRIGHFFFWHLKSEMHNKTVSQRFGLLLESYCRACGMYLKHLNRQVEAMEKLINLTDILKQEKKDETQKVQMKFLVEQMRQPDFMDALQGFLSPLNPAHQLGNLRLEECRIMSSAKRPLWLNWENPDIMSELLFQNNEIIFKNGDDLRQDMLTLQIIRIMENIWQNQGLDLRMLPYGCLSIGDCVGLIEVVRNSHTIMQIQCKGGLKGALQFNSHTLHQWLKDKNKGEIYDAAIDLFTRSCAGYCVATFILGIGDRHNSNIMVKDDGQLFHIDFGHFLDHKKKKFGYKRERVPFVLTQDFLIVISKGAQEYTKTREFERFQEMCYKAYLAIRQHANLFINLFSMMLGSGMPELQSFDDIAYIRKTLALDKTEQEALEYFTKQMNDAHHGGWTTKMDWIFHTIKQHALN
Sequence of PI3-Kα (P26450 whole entry partner, the tested form may be a part): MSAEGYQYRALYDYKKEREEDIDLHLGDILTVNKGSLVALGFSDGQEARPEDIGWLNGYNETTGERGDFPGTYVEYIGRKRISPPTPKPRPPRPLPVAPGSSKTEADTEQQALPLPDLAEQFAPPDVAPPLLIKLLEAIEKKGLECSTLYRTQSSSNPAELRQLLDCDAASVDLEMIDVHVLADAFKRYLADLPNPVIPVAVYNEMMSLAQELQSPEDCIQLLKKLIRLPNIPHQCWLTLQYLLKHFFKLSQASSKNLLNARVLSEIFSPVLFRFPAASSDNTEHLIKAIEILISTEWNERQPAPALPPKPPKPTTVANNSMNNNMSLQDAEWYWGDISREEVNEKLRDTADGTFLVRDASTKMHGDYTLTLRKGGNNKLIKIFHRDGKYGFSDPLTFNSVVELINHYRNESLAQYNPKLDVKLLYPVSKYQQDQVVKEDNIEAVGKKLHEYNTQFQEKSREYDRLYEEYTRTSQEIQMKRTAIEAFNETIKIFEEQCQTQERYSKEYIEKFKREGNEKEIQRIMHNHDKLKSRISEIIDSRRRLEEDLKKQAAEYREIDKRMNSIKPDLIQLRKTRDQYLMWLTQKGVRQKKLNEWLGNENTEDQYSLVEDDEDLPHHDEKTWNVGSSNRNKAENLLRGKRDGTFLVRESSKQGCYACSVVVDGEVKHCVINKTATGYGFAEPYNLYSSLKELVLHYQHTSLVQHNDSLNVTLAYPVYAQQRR

mTOR = mTOR (Homo sapiens (Human), UniProt P42345)
Sequence of mTOR (P42345 2156-2469): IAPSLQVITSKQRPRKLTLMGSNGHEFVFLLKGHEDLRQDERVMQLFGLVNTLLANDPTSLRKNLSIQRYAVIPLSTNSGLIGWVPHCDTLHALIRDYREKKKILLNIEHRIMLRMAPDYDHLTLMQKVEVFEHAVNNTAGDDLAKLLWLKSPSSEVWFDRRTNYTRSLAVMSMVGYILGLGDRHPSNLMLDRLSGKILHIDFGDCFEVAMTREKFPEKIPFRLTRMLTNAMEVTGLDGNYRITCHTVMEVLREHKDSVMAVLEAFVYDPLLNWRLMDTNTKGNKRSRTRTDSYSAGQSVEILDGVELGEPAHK

[2] = read-out: S473 pAKT 10% FBS IC50 (μM)

For `CN(C)c1ccc(-c2ccc3ncc4c(c3n2)n(C2CCN(C(=O)C(C)(C)C)CC2)c(=O)n4C)cn1` [Compound 205, 8-[6-(dimethylamino)pyridin-3-yl]-1-[1-(2,2-dimethylpropanoyl)piperidin-4-yl]-3-methyl-1,3-dihydro-2H-imidazo[4,5-c][1,5]naphthyridin-2-one], the IC50 [1, 2] was 0.0214 µM, the “PI3Ka Ki” value (PI3-Kα) was 0.281 nM and the Ki (mTOR) was 4.38 nM.
For `Cn1c(=O)n(C2CCNCC2)c2c3nc(-c4cnc(N)nc4)ccc3ncc21` [Compound 227, 8-(2-aminopyrimidin-5-yl)-3-methyl-1-piperidin-4-yl-1,3-dihydro-2H-imidazo[4,5-c][1,5]naphthyridin-2-one], the IC50 [1, 2] was 0.137 µM, the “PI3Ka Ki” value (PI3-Kα) was 1.61 nM and the Ki (mTOR) was 3.61 nM.
For `CNC(=O)N1CCC(n2c(=O)n(C)c3cnc4ccc(-c5cnc6ccccc6c5)nc4c32)CC1` [Compound 123, N-methyl-4-(3-methyl-2-oxo-8-quinolin-3-yl-2,3-dihydro-1H-imidazo[4,5-c][1,5]naphthyridin-1-yl)piperidine-1-carboxamide], the IC50 ([1]; read-out: S473 pAKT 0.5% FBS IC50 (μM)) was 0.00734 µM, the “PI3Ka Ki” value (PI3-Kα) was 1.96 nM and the Ki (mTOR) was 4.91 nM.
With `CN1CCC(n2c(=O)n(C)c3cnc4ccc(-c5cnc6[nH]ncc6c5)nc4c32)CC1` [Compound 263, 3-methyl-1-(1-methylpiperidin-4-yl)-8-(1H-pyrazolo[3,4-b]pyridin-5-yl)-1,3-dihydro-2H-imidazo[4,5-c][1,5]naphthyridin-2-one] the IC50 [1, 2] was 0.0218 µM, the “PI3Ka Ki” value (PI3-Kα) was 0.282 nM and the Ki (mTOR) was 5.67 nM.
For `COc1ccc(-c2ccc3ncc4c(c3n2)n([C@@H](C)CO)c(=O)n4C)cn1` [Compound 241, 1-[(1S)-2-hydroxy-1-methylethyl]-8-(6-methoxypyridin-3-yl)-3-methyl-1,3-dihydro-2H-imidazo[4,5-c][1,5]naphthyridin-2-one], the IC50 [1, 2] was 0.266 µM, the “PI3Ka Ki” value (PI3-Kα) was 4.08 nM and the Ki (mTOR) was 28.7 nM.
For `C[C@@H](CO)n1c(=O)n(C)c2cnc3ccc(-c4cnn(C)c4)nc3c21` [Compound 239, 1-[(1S)-2-hydroxy-1-methylethyl]-3-methyl-8-(1-methyl-1H-pyrazol-4-yl)-1,3-dihydro-2H-imidazo[4,5-c][1,5]naphthyridin-2-one], the IC50 [1, 2] was 5.04 µM, the “PI3Ka Ki” value (PI3-Kα) was 102 nM and the Ki (mTOR) was 311 nM.
For `Cn1c(=O)n(C2CCN(C(=O)C(C)(C)O)CC2)c2c3nc(-c4cnc5ccccc5c4)ccc3ncc21` [Compound 143, 1-[1-(2-hydroxy-2-methylpropanoyl)piperidin-4-yl]-3-methyl-8-quinolin-3-yl-1,3-dihydro-2H-imidazo[4,5-c][1,5]naphthyridin-2-one], the IC50 [1, 2] was 0.028 µM, the “PI3Ka Ki” value (PI3-Kα) was 0.568 nM and the Ki (mTOR) was 7.21 nM.
For `Cn1c(=O)n(C2CCN(C(=O)CO)CC2)c2c3nc(-c4cnc5[nH]ncc5c4)ccc3ncc21` [Compound 262, 1-(1-glycoloylpiperidin-4-yl)-3-methyl-8-(1H-pyrazolo[3,4-b]pyridin-5-yl)-1,3-dihydro-2H-imidazo[4,5-c][1,5]naphthyridin-2-one], the IC50 [1, 2] was 0.0594 µM, the “PI3Ka Ki” value (PI3-Kα) was 0.32 nM and the Ki (mTOR) was 4.06 nM.
`COc1ncc(-c2ccc3ncc4c(c3n2)n(C2CCN(C(=O)[C@H](C)O)CC2)c(=O)n4C)cn1` [Compound 154, 1-{1-[(2S)-2-hydroxypropanoyl]piperidin-4-yl}-8-(2-methoxypyrimidin-5-yl)-3-methyl-1,3-dihydro-2H-imidazo[4,5-c][1,5]naphthyridin-2-one] was tested, and the IC50 [1, 2] was 0.0342 µM, the “PI3Ka Ki” value (PI3-Kα) was 2.59 nM and the Ki (mTOR) was 0.822 nM.
For `Cc1ccc(-c2ccc3ncc4c(c3n2)n(C2CCN(c3ncccn3)CC2)c(=O)n4C)cn1` [Compound 165, 3-methyl-8-(6-methylpyridin-3-yl)-1-(1-pyrimidin-2-ylpiperidin-4-yl)-1,3-dihydro-2H-imidazo[4,5-c][1,5]naphthyridin-2-one], the IC50 [1, 2] was 0.0414 µM, the “PI3Ka Ki” value (PI3-Kα) was 3.52 nM and the Ki (mTOR) was 73.2 nM.
With `Cn1c(=O)n(C2CCOCC2)c2c3nc(-c4cnn(CCO)c4)ccc3ncc21` [Compound 208, 8-[1-(2-hydroxyethyl)-1H-pyrazol-4-yl]-3-methyl-1-(tetrahydro-2H-pyran-4-yl)-1,3-dihydro-2H-imidazo[4,5-c][1,5]naphthyridin-2-one] the IC50 [1, 2] was 0.579 µM, the “PI3Ka Ki” value (PI3-Kα) was 24.4 nM and the Ki (mTOR) was 44.2 nM.
For `Cn1c(=O)n([C@H]2CC[C@H](O)CC2)c2c3nc(-c4ccc5[nH]ncc5c4)ccc3ncc21` [Compound 267, 1-(trans-4-hydroxycyclohexyl)-8-(1H-indazol-5-yl)-3-methyl-1,3-dihydro-2H-imidazo[4,5-c][1,5]naphthyridin-2-one], the IC50 [1, 2] was 0.0205 µM, the “PI3Ka Ki” value (PI3-Kα) was 0.145 nM and the Ki (mTOR) was 0.359 nM.
For `CC(=O)N1CCC(n2c(=O)n(C)c3cnc4ccc(-c5ccnc6[nH]ncc56)nc4c32)CC1` [Compound 251, 1-(1-acetylpiperidin-4-yl)-3-methyl-8-(1H-pyrazolo[3,4-b]pyridin-4-yl)-1,3-dihydro-2H-imidazo[4,5-c][1,5]naphthyridin-2-one], the IC50 [1, 2] was 0.14 µM, the “PI3Ka Ki” value (PI3-Kα) was 0.811 nM and the Ki (mTOR) was 4.63 nM.
In the case of `COc1ncc(-c2ccc3ncc4c(c3n2)n(C2CCN(C(=O)CN)CC2)c(=O)n4C)cn1` [Compound 184, 1-(1-glycylpiperidin-4-yl)-8-(2-methoxypyrimidin-5-yl)-3-methyl-1,3-dihydro-2H-imidazo[4,5-c][1,5]naphthyridin-2-one], the IC50 [1, 2] is reported as 0.184 µM, the “PI3Ka Ki” value (PI3-Kα) is reported as 3.93 nM and the Ki (mTOR) is reported as 13.3 nM.
In the case of `CN(C)c1ccc(-c2ccc3ncc4c(c3n2)n(C2CCN(CCO)CC2)c(=O)n4C)cn1` [Compound 198, 8-[6-(dimethylamino)pyridin-3-yl]-1-[1-(2-hydroxyethyl)piperidin-4-yl]-3-methyl-1,3-dihydro-2H-imidazo[4,5-c][1,5]naphthyridin-2-one], the IC50 [1, 2] is reported as 0.0325 µM, the “PI3Ka Ki” value (PI3-Kα) is reported as 3.13 nM and the Ki (mTOR) is reported as 3.52 nM.
With `COc1cccc(-c2ccc3ncc4c(c3n2)n(C2CCN(C(=O)[C@H](C)O)CC2)c(=O)n4C)c1` [Compound 275, 1-{1-[(2S)-2-hydroxypropanoyl]piperidin-4-yl}-8-(3-methoxyphenyl)-3-methyl-1,3-dihydro-2H-imidazo[4,5-c][1,5]naphthyridin-2-one] the IC50 [1, 2] was 0.0344 µM, the “PI3Ka Ki” value (PI3-Kα) was 2.01 nM and the Ki (mTOR) was 8.51 nM.
`COc1ncc(-c2ccc3ncc4c(c3n2)n(C2CCOCC2)c(=O)n4C)cn1` [Compound 201, 8-(2-methoxypyrimidin-5-yl)-3-methyl-1-(tetrahydro-2H-pyran-4-yl)-1,3-dihydro-2H-imidazo[4,5-c][1,5]naphthyridin-2-one] was tested, and the IC50 [1, 2] was 0.0989 µM, the “PI3Ka Ki” value (PI3-Kα) was 8.96 nM and the Ki (mTOR) was 6.42 nM.
With `CN(C)c1ccc(-c2ccc3ncc4c(c3n2)n([C@H]2CC[C@H](OCCO)CC2)c(=O)n4C)cn1` [Compound 149, 8-[6-(dimethylamino)pyridin-3-yl]-1-[trans-4-(2-hydroxyethoxy)cyclohexyl]-3-methyl-1,3-dihydro-2H-imidazo[4,5-c][1,5]naphthyridin-2-one] the IC50 [1, 2] was 0.0116 µM, the “PI3Ka Ki” value (PI3-Kα) was 0.102 nM and the Ki (mTOR) was 9.02 nM.
For `C[C@H](O)C(=O)N1CCC(n2c(=O)n(C)c3cnc4ccc(-c5ccnc6[nH]ncc56)nc4c32)CC1` [Compound 253, 1-{1-[(2S)-2-hydroxypropanoyl]piperidin-4-yl}-3-methyl-8-(1H-pyrazolo[3,4-b]pyridin-4-yl)-1,3-dihydro-2H-imidazo[4,5-c][1,5]naphthyridin-2-one], the IC50 [1, 2] was 0.218 µM, the “PI3Ka Ki” value (PI3-Kα) was 1.04 nM and the Ki (mTOR) was 1.69 nM.
`Cc1ccc(-c2ccc3ncc4c(c3n2)n([C@H]2CC[C@H](O)CC2)c(=O)n4C)cn1` [Compound 179, 1-(trans-4-hydroxycyclohexyl)-3-methyl-8-(6-methylpyridin-3-yl)-1,3-dihydro-2H-imidazo[4,5-c][1,5]naphthyridin-2-one] was tested, and the IC50 [1, 2] was 0.0185 µM, the “PI3Ka Ki” value (PI3-Kα) was 1.03 nM and the Ki (mTOR) was 3.29 nM.
For `Cn1c(=O)n(C2CCN(C(=O)C(C)(C)O)CC2)c2c3nc(-c4cnc5[nH]ncc5c4)ccc3ncc21` [Compound 261, 1-[1-(2-hydroxy-2-methylpropanoyl)piperidin-4-yl]-3-methyl-8-(1H-pyrazolo[3,4-b]pyridin-5-yl)-1,3-dihydro-2H-imidazo[4,5-c][1,5]naphthyridin-2-one], the IC50 [1, 2] was 0.00991 µM, the “PI3Ka Ki” value (PI3-Kα) was 0.114 nM and the Ki (mTOR) was 0.658 nM.
In the case of `COc1cccc(-c2ccc3ncc4c(c3n2)n(C2CCN(C(=O)CO)CC2)c(=O)n4C)c1` [Compound 276, 1-(1-glycoloylpiperidin-4-yl)-8-(3-methoxyphenyl)-3-methyl-1,3-dihydro-2H-imidazo[4,5-c][1,5]naphthyridin-2-one], the IC50 [1, 2] is reported as 0.0304 µM, the “PI3Ka Ki” value (PI3-Kα) is reported as 2.22 nM and the Ki (mTOR) is reported as 10.2 nM.
With `Cc1ccc(-c2ccc3ncc4c(c3n2)n(C2CCN(CCO)CC2)c(=O)n4C)cn1` [Compound 166, 1-[1-(2-hydroxyethyl)piperidin-4-yl]-3-methyl-8-(6-methylpyridin-3-yl)-1,3-dihydro-2H-imidazo[4,5-c][1,5]naphthyridin-2-one] the IC50 [1, 2] was 0.0356 µM, the “PI3Ka Ki” value (PI3-Kα) was 1.77 nM and the Ki (mTOR) was 17.6 nM.
In the case of `Cn1c(=O)n([C@H]2CC[C@H](O)CC2)c2c3nc(-c4cnc5ccccc5c4)ccc3ncc21` [Compound 146, 1-(trans-4-hydroxycyclohexyl)-3-methyl-8-quinolin-3-yl-1,3-dihydro-2H-imidazo[4,5-c][1,5]naphthyridin-2-one], the IC50 [1, 2] is reported as 0.00521 µM, the “PI3Ka Ki” value (PI3-Kα) is reported as 1.2 nM and the Ki (mTOR) is reported as 3.8 nM.
`Cc1ccc(-c2ccc3ncc4c(c3n2)n(C2CCN(C)CC2)c(=O)n4C)cn1` [Compound 171, 3-methyl-1-(1-methylpiperidin-4-yl)-8-(6-methylpyridin-3-yl)-1,3-dihydro-2H-imidazo[4,5-c][1,5]naphthyridin-2-one] was tested, and the IC50 [1, 2] was 0.0228 µM, the “PI3Ka Ki” value (PI3-Kα) was 4.26 nM and the Ki (mTOR) was 40.1 nM.

— US8791131B2, “Imidazo[1,5]naphthyridine compounds, their pharmaceutical use and compositions” (Pfizer Inc., priority 2008, dated 2014)
